Measured values from ChEMBL document CHEMBL5727416, “Bicyclic heteroarylaminoalkyl phenyl derivatives as PI3K inhibitors” (2019).

Target: T1, Phosphatidylinositol 4,5-bisphosphate 3-kinase catalytic subunit delta isoform (Homo sapiens, UniProt O00329)
T1 sequence (O00329 whole entry): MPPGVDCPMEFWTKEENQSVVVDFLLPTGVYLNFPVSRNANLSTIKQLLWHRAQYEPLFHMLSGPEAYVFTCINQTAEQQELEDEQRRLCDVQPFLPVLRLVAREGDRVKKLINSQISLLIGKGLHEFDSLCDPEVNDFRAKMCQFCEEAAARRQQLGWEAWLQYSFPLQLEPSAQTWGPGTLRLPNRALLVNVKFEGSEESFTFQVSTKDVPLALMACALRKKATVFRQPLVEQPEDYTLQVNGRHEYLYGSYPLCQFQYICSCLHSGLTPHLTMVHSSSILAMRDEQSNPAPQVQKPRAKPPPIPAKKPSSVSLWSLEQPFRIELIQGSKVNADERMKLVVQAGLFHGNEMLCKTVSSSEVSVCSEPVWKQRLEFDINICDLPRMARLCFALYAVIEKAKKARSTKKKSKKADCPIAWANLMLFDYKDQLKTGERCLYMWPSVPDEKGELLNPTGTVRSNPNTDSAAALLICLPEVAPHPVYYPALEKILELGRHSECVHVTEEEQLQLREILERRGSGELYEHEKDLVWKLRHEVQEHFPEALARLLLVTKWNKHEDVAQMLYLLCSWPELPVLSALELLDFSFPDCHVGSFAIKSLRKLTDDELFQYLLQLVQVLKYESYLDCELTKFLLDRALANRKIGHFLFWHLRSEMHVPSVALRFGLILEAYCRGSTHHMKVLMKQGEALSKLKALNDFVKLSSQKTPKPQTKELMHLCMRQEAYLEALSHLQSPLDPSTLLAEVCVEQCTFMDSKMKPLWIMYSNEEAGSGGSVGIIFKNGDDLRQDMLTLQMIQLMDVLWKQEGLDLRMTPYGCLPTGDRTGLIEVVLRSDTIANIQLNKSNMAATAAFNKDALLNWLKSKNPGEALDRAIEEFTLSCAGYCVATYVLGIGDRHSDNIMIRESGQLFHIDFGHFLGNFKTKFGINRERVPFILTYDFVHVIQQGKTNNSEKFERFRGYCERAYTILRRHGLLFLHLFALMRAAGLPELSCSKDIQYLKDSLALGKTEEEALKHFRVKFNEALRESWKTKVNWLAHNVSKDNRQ
Test: Scintillation Proximity Assay: PI3Kδ:The kinase reaction was conducted in polystyrene 384-well matrix white plate from Thermo Fisher Scientific in a final volume of 25 μL. Inhibitors were first diluted serially in DMSO and added to the plate wells before the addition of other reaction components. The final concentration of DMSO in the assay was 0.5%. The PI3K assays were carried out at room temperature in 20 mM MOPS, pH 6.7, 10 mM MgCl2, 5 mM DTT and CHAPS 0.03%. Reactions were initiated by the addition of ATP, the final reaction mixture consisted of 20 μM PIP2, 20 μM ATP, 0.2 μCi [γ-33P] ATP, 4 nM PI3Kδ. Reactions were incubated for 210 min and terminated by the addition of 40 μL SPA beads suspended in quench buffer: 150 mM potassium phosphate pH 8.0, 20% glycerol. 25 mM EDTA, 400 μM ATP. The final concentration of SPA beads was 1.0 mg/mL. After the plate sealing, plates were shaken overnight at room temperature and centrifuged at 1800 rpm for 10 minutes, the radioactivity of the product was determined by scintillation counting on Topcount (Perkin-Elmer).

## N#CCC(C1CCN(c2nc3cccnc3o2)C1)n1cc(-c2ncnc3[nH]ccc23)cn1 (stereo unspecified)
  IC50: < 10 nM
